The text below walks through data of patent EP1057825A1, “ISOFLAVANE DERIVATIVES AND IMMUNOPOTENTIATING COMPOSITIONS CONTAINING THE SAME” (SHIONOGI & CO., LTD., priority 1998, dated 1999).

For test [1], the system named is mouse spleen cells. In words: Action on the blastogenesis of mouse spleen cells (ConA-stimulated, MTT reduction method). Type of test: cell-based, BALB/c mouse. The conditions noted are these: ConA 1 µg/ml, 3 days, rate against no test compound = one; for activity at 0.1 µg/mL / activity at 0.2 µg/mL / activity at 0.39 µg/mL / activity at 0.78 µg/mL / activity at 1.56 µg/mL / activity at 3.13 µg/mL / activity at 6.25 µg/mL: Mus musculus, 72 h. As to the method: Serial two-fold dilutions (100 µl/well) with 10% FBS of test compounds which are dissolved in a dimethyl sulfoxide (DMSO) solution are obtained on a 96-well microplate, and used as test samples.
The spleen of a BALB/c mouse is aseptically isolated, and gently ground on a wire mesh with dropwise addition of sterilzed saline. The filtrate is passed through a nylon mesh (Becton Dickinson; pore size: 70 µm), thereby preparing a unicellular suspension.
After being washed twice with sterilized saline, the spleen cells are suspended in RPMI1460 containing 10% FCS and containing 1 µg/ml of concanavalin A (abbreviated as ConA: Sigma, U.S.) as well as an antibiotic (Sigma: Antibiotic Antimycotic), and dispensed into a 96-well microplate, in which 100 µl each of diluted test samples are previously dispensed, in amounts of 3 × 10^5 cells/100 µl/well.
Thereafter, culturing is carried out under 5% carbon dioxide gas at 37°C for 3 days, and then the blastogenesis of lymphocytes is measured by an MTT reduction method [Mosmann T, Journal of Immunological Method, vol. 65, p. 55, 1983]. The blastogenesis rate can be quantitated as a rate against the blastogenesis of those not having test compounds added thereto, which is defined as one. The presence of an immunoactivating action can be determined if the blastogenesis rate exceeds one.
Serial two-fold dilutions (100 µl/well) with RPMI1640 (Nikken Biomedical Laboratory) containing 10% FBS (bovine fetal serum: Dainippon Pharmaceutical Co., Ltd.) of test compounds which were dissoloved in a dimethylsulfoxide (DMSO) solution were obtained on a 96-well microplate, and used as test samples.
The spleen of a BALB/c mouse (a 6 week-old female) was aseptically isolated, and gently ground on a wire mesh with dropwise addition of sterilzed saline. The filtrate was passed through a nylon mesh (Becton Dickinson; pore size: 70 µm), thereby preparing a unicellular suspension.
After being washed twice with sterilized saline, the spleen cells were suspended in RPMI1460 containing 10% FCS and containing 1 µg/ml of concanavalin A (abbreviated as ConA: Sigma, U.S.) as well as an antibiotic (Sigma: Antibiotic Antimycotic), and dispensed into a 96-well microplate, in which 100 µl each of diluted test samples had previously been dispensed, in amounts of 3×10^5 cells/100 µl/well.
Thereafter, culturing was carried out under 5% carbon dioxide gas at 37°C for 3 days, and then the blastogenesis of lymphocytes was measured by an MTT reduction method [Mosmann T, Journal of Immunological Method, vol. 65, p. 55, 1983]. The results are shown in [Table 4].
A general note: Tetrazolium assays rely on reduction of a dye to a coloured formazan, in cell work by metabolically active cells.

For test [2], the system named is mouse bone marrow cells. Kind of test: Metabolism promoting action on mouse bone marrow cells (mitochondrial metabolism activity, MTT reduction method). Format: cell-based, BALB/c mouse. The following applies: 5 days, magnitude of metabolism, no test compound = one; for activity at 0.39 µg/mL / activity at 0.78 µg/mL / activity at 1.56 µg/mL / activity at 3.13 µg/mL / activity at 6.25 µg/mL / activity at 12.5 µg/mL: Mus musculus, Bone marrow cell, 120 h. From the text: The presence of an immunoactivating action can be determined if the magnitude of metabolism exceeds one, where the cellular metabolism of cells not having test compounds added thereto is defined as one.

Setting [3] is: concentration of additions in medium 0.1 μg/ml.
[4] abbreviates: concentration of additions in medium 0.2 μg/ml.
Where [5] appears, read: concentration of additions in medium 0.39 μg/ml.
[6] abbreviates: concentration of additions in medium 0.78 μg/ml.
Setting [7] is: concentration of additions in medium 1.56 μg/ml.
The mark [8] stands for this setting: concentration of additions in medium 3.13 μg/ml.
The mark [9] stands for this setting: concentration of additions in medium 6.25 μg/ml.
Where [10] appears, read: Test compound concentration 0.39 µg/ml.
[11] abbreviates: Test compound concentration 0.78 µg/ml.
[12] abbreviates: Test compound concentration 1.56 µg/ml.
[13] abbreviates: Test compound concentration 3.13 µg/ml.
The mark [14] stands for this setting: Test compound concentration 6.25 µg/ml.
The mark [15] stands for this setting: Test compound concentration 12.5 µg/ml.

Consider `COc1ccc(C2COc3cc(OC)c(CC=C(C)C)c(OC)c3C2)c(OC)c1CC=C(C)C` (stereo not shown) [A-3, 3-(2,4-dimethoxy-3-(3-methyl-2-butenyl)phenyl)-3,4-dihydro-5,7-dimethoxy-6-(3-methyl-2-butenyl)-2H-1-benzopyran], for which the activity at 0.1 µg/mL in test [1] (setting [3]) was 98%. The activity at 0.2 µg/mL in test [1] (setting [4]) is 88%. The activity at 0.39 µg/mL in test [1] (setting [5]) turned out to be 88%; in test [2] (setting [10]), 111%. Also, the figures for the activity at 0.78 µg/mL in test [1] (setting [6]) and in test [2] (setting [11]) were 79% and 108%, respectively. Further, the activity at 1.56 µg/mL in test [1] (setting [7]) is 83%; in test [2] (setting [12]), 114%. The values for the activity at 3.13 µg/mL in test [1] (setting [8]) and in test [2] (setting [13]) were 120% and 114%, respectively. For the same compound, the values for the activity at 6.25 µg/mL in test [1] (setting [9]) and in test [2] (setting [14]) were 246% and 111%, respectively. For the same compound, in test [2] (setting [15]), the activity at 12.5 µg/mL was 62%.

`COc1cc2c(c(OC)c1CC=C(C)C)CC(c1ccc(O)c(CC=C(C)C)c1O)CO2` (stereo not shown) [A-2, 4-[3,4-dihydro-5,7-dimethoxy-6-(3-methyl-2-butenyl)-2H-1-benzopyran-3-yl]-2-(3-methyl-2-butenyl)-1,3-benzenediol]: the activity at 0.1 µg/mL in test [1] (setting [3]) came to 117%. Also, the activity at 0.2 µg/mL in test [1] (setting [4]) turned out to be 112%. Further, the activity at 0.39 µg/mL in test [1] (setting [5]) was found to be 137%. Moreover, the activity at 0.78 µg/mL in test [1] (setting [6]) was determined as 184%. The activity at 1.56 µg/mL in test [1] (setting [7]) worked out at 234%. Besides, the activity at 3.13 µg/mL in test [1] (setting [8]) came out at 121%. Also, the activity at 6.25 µg/mL in test [1] (setting [9]) came to 26%.

Turning to `COc1cc2c(c(OC)c1CC=C(C)C)CC(c1ccc(O)c(CC=C(C)C)c1OC)CO2` (stereo not shown) [A-5, 3-(4-hydroxy-2-methoxy-3-(3-methyl-2-butenyl)-phenyl)-3,4-dihydro-5,7-dimethoxy-6-(3-methyl-2-butenyl)-2H-1-benzopyran], the activity at 0.1 µg/mL in test [1] (setting [3]) came out at 101%. Further, in test [1] (setting [4]), the activity at 0.2 µg/mL was determined as 96%. Also, the activity at 0.39 µg/mL in test [1] (setting [5]) came out at 107%; in test [2] (setting [10]), 116%. Further, the activity at 0.78 µg/mL came to 111% in test [1] (setting [6]) and 120% in test [2] (setting [11]). The values for the activity at 1.56 µg/mL in test [1] (setting [7]) and in test [2] (setting [12]) were 118% and 138%, respectively. Further, the values for the activity at 3.13 µg/mL in test [1] (setting [8]) and in test [2] (setting [13]) were 209% and 146%, respectively. The results for the activity at 6.25 µg/mL in test [1] (setting [9]) and in test [2] (setting [14]) were 239% and 55%, respectively. In addition, in test [2] (setting [15]), the activity at 12.5 µg/mL is 53%.

Consider `COc1c(CC=C(C)C)c(O)cc2c1CC(c1ccc(O)c(CC=C(C)C)c1O)CO2` (stereo not shown) [A-1, 4-[3,4-dihydro-7-hydroxy-5-methoxy-6-(3-methyl-2-butenyl)-2H-1-benzopyran-3-yl]-2-(3-methyl-2-butenyl)-1,3-benzenediol], for which, in test [1] (setting [3]), the activity at 0.1 µg/mL stood at 113%. In addition, the activity at 0.2 µg/mL in test [1] (setting [4]) was found to be 109%. In addition, the activity at 0.39 µg/mL in test [1] (setting [5]) was found to be 129%; in test [2] (setting [10]), 114%. Moreover, the activity at 0.78 µg/mL in test [1] (setting [6]) amounted to 157%; in test [2] (setting [11]), 101%. Besides, the activity at 1.56 µg/mL in test [1] (setting [7]) came to 188%; in test [2] (setting [12]) it was 93%. Further, the activity at 3.13 µg/mL in test [1] (setting [8]) came out at 225%; in test [2] (setting [13]) it was 127%. For the same compound, the results for the activity at 6.25 µg/mL in test [1] (setting [9]) and in test [2] (setting [14]) were 171% and 198%, respectively. Further, in test [2] (setting [15]), the activity at 12.5 µg/mL was found to be 58%.

In the case of “3-(2,4-dimethoxy-3-(3-methyl-2-butenyl)phenyl)-3,4-dihydro-5-hydroxy-7-methoxy-6-(3-methyl-2- butenyl)-2H-1-benzopyran [A-6]”, the blastogenesis rate is reported as 1.12 in test [1] (setting [3]); 1.05 in test [1] (setting [4]); 1.12 in test [1] (setting [5]); 1.26 in test [1] (setting [6]); 1.55 in test [1] (setting [7]); 2.46 in test [1] (setting [8]). In test [1] (setting [9]), the blastogenesis rate is listed as 3.28. The “metabolism activity of mouse bone marrow cells” value came out at 0.97 in test [2] (setting [10]); 1.05 in test [2] (setting [11]); 1.20 in test [2] (setting [12]); 1.52 in test [2] (setting [13]); 0.77 in test [2] (setting [14]); 0.51 in test [2] (setting [15]).

As for `COc1ccc(C2COc3cc(O)c(CC=C(C)C)c(OC)c3C2)c(O)c1CC=C(C)C` (stereo not shown) [A-7, 3-(2-hydroxy-4-methoxy-3-(3-methyl-2-butenyl)-phenyl)-3,4-dihydro-5-methoxy-7-hydroxy-6-(3-methyl-2-butenyl)-2H-1-benzopyran], the activity at 0.1 µg/mL in test [1] (setting [3]) was 113%. Also, in test [1] (setting [4]), the activity at 0.2 µg/mL was 107%. For the same compound, the figures for the activity at 0.39 µg/mL in test [1] (setting [5]) and in test [2] (setting [10]) were 132% and 103%, respectively. For the same compound, the activity at 0.78 µg/mL is 161% in test [1] (setting [6]) and 112% in test [2] (setting [11]). Also, the activity at 1.56 µg/mL worked out at 195% in test [1] (setting [7]) and 139% in test [2] (setting [12]). The figures for the activity at 3.13 µg/mL in test [1] (setting [8]) and in test [2] (setting [13]) were 293% and 152%, respectively. Besides, the activity at 6.25 µg/mL in test [1] (setting [9]) came to 408%; in test [2] (setting [14]), 51%. Besides, the activity at 12.5 µg/mL in test [2] (setting [15]) stood at 51%.

Turning to `COc1ccc(C2COc3cc(OC)c(CC=C(C)C)c(OC)c3C2)c(O)c1CC=C(C)C` (stereo not shown) [A-4, 3-(2-hydroxy-4-methoxy-3-(3-methyl-2-butenyl)-phenyl)-3,4-dihydro-5,7-dimethoxy-6-(3-methyl-2-butenyl)-2H-1-benzopyran], the activity at 0.1 µg/mL in test [1] (setting [3]) stood at 105%. Also, the activity at 0.2 µg/mL in test [1] (setting [4]) was determined as 101%. The activity at 0.39 µg/mL in test [1] (setting [5]) was 109%; in test [2] (setting [10]), 107%. The values for the activity at 0.78 µg/mL in test [1] (setting [6]) and in test [2] (setting [11]) were 113% and 107%, respectively. Further, the activity at 1.56 µg/mL in test [1] (setting [7]) was 155%; in test [2] (setting [12]), 121%. The activity at 3.13 µg/mL in test [1] (setting [8]) came out at 231%; in test [2] (setting [13]), 132%. Further, the activity at 6.25 µg/mL came out at 375% in test [1] (setting [9]) and 133% in test [2] (setting [14]). In test [2] (setting [15]), the activity at 12.5 µg/mL was 58%.
